Laboratory results from publication PMC7463460, “Structure and Antiparasitic Activity Relationship of Alkylphosphocholine Analogues against Leishmania donovani” (Microorganisms, 2020).
pIC50: −log10 of the molar value. Several values for one entry are separate records, joined by “and”; a condition that tells them apart may be missing. Equal values may be shown once. Read-outs that look alike come from different tables or passages of the source.

Legend:
[1] = tested on: L. donovani LV82 intracellular amastigotes; assay: Intracellular amastigote assay in bone-marrow-derived macrophages, strain LV82; type: cell-based, Leishmania donovani; conditions: for IC50: Leishmania donovani, Macrophage, in Mus musculus, 72 h; for Selectivity Index (SI50): macrophage CC50 / LV82 intracellular amastigote IC50
Procedure: In the macrophage studies, the method described in previous studies was used as follows. […] It is possible that intracellular macrophage parasites could have been at different developmental stages at 24 h post-infection. […] Therefore, we assumed that the effect of compounds on the amastigote stage rather than the promastigotes stage was determined in in vitro macrophage studies.
The plate was incubated for a further 24 h, the medium removed, and each well washed with PBS to eliminate non-internalized parasites, which were monitored microscopically. […] Wells with macrophage and with no drug or promastigotes added were used in control experiments.
(§1) Luciferin solution (1 µg/mL in 20 µL medium without FCS) was added to the appropriate wells of the 96-well plate at the end of the experiment and the amount of light emitted/well was measured using a luminometer (Biotek Synergy HT, relative light units) using a wavelength/bandwidth of 440/40 nm, or IVIS® imaging (Spectrum Living Image system®, total flux, photons/sec).
The effect of drug treatment on parasite survival was determined by calculating the mean suppression in the light emitted from the drug-treated experimental sample compared to the mean control value and used to calculate the IC50 using Grafit® software (version 5.0, Erithacus Software, East Grinstead, West Sussex, UK). The effect of drug alone on the viability of uninfected macrophages was determined using the same experimental protocol above, but cell viability was determined using an alamar blue colorimetric assay. […] The effect of drug treatment on cell survival, which correlates with the magnitude of dye reduction, was expressed as percentage viability (or alamar blue reduction) and determined using the formula provided in the manufacturer’s protocol % alamar blue reduction=(εoxλ)(Aλ1)−(εoxλ1)(Aλ2)/(εredλ1)(A^′λ2)−(εredλ2)(A^′λ1)x100

[2] = Cytotoxicity against uninfected macrophages (alamar blue); type: cell-based, BALB/c mice; conditions: BALB/c, mouse, read-out: Macrophage mean IC50 (CC50) (converted)
Procedure: (§2) The effect of drug treatment on parasite survival was determined by calculating the mean suppression in the light emitted from the drug-treated experimental sample compared to the mean control value and used to calculate the IC50 using Grafit® software (version 5.0, Erithacus Software, East Grinstead, West Sussex, UK). The effect of drug alone on the viability of uninfected macrophages was determined using the same experimental protocol above, but cell viability was determined using an alamar blue colorimetric assay. At the end of the incubation period, cells’ 10 µL resazurin solution (0.02% w/v) was added to control and drug treated cells and the absorbance of samples was read at 575 and 595 nm. The effect of drug treatment on cell survival, which correlates with the magnitude of dye reduction, was expressed as percentage viability (or alamar blue reduction) and determined using the formula provided in the manufacturer’s protocol % alamar blue reduction=(εoxλ)(Aλ1)−(εoxλ1)(Aλ2)/(εredλ1)(A^′λ2)−(εredλ2)(A^′λ1)x100
(§3) In the formula, ελ1 and ελ2 are constants representing the molar extinction coefficient of alamar blue at 575 and 595 nm, respectively, in the oxidized (εox) and reduced (εred) forms. Aλ1, Aλ2 and A’λ1, A’λ2 represent absorbance of test and negative control wells at 575 and 595 nm, respectively. The values of % alamar blue reduction (or % viability) were corrected for background values of negative controls containing medium without cells. Percent viability values were used to calculate the IC50 using Grafit® software (version 5.0).

[3] = tested on: L. donovani LV82 promastigotes; assay: Luciferase-expressing promastigote assay, strain LV82; type: cell-based, Leishmania donovani; conditions: for Promast: Amast Ratio: LV82; for IC50: Leishmania donovani, 72 h, LV82, 3 days, 25 °C
Procedure: The anti-leishmanial activity of APC against L. donovani luciferase-expressing promastigotes was determined by adding of the appropriate 100 µL parasite line (10^6 cells/mL) to the wells of a 96-well plate and adding 100 µL medium alone (controls) or 100 µL of APC compound (0.01 µg/mL–6.25 µg/mL, n = 3/treatment). The plate was incubated for 72 h at 25 °C. In combination assays, the additional compound/compounds, at a final concentration of 0.195 or 0.39 µg/mL, was added to the initial APC being tested.
as §1, §2

[4] = tested on: bone-marrow-derived macrophages from BALB/c mice; assay: Cytotoxicity against uninfected macrophages (alamar blue); type: cell-based; conditions: 3 days
Procedure: as §2, §3

visceral leishmaniasis = conditions: VL, 12 months post-treatment; cited from earlier work
[5] = LV82, intracellular in BALB/c macrophages, 3 days, 37 °C
[6] = uninfected bone-marrow-derived macrophages

Compound | IC50 [1, 5] | Selectivity Index (SI50) [1] | IC50 at 3 days [2] | Promast: Amast Ratio [3] | IC50 [3] | IC50 at 3 days [2, 6] | activity against L. donovani compared to controls ([3]; LV82 promastigotes and amastigotes) | Amastigote mean IC50 [1, 5] [µg/mL] | pIC50 [1, 5] | Macrophage mean IC50 (CC50) [4] [µg/mL] | IC50 ([4]; read-out: Macrophage mean IC50 (CC50) (converted)) [µM] | cure rate (visceral leishmaniasis) [%]
CCCCCCCCCCCC[N+](C)(C)CCCCCCCCCCCC [DAB, didodecyldimethyl ammonium bromide] | 0.06 µg/mL and 119 nM | 1503.45 | 82.8 µg/mL and 179 µM | 0.79 | 0.04 µg/mL and 91 nM |  |  |  |  |  |  | 
CCCCCCCCCCCCOP(=O)(O)O [PO, mono –n-dodecyl phosphate] | > 2 µg/mL and > 8.02 µM | >50.00 |  | >3.12 | > 6.25 µg/mL and > 25.1 µM | 100 µg/mL and 401 µM | inactive |  |  |  |  | 
CC(C)CCC(CCC(C)C)OP(=O)([O-])OCC[N+](C)(C)C [APC11PC, 2,8-Dimethyl-5-Nonylphosphocholine] | 0.19 µg/mL and 550 nM | 335.56 |  | >33.60 | > 6.25 µg/mL and > 18.6 µM | 61.9 µg/mL and 185 µM |  |  |  |  |  | 
dodecylamine [DA] |  | 79.88 |  | 0.18 |  |  |  | 0.47 ± 0.00 | 5.60 | 37.60 ± 0.01 | 203 | 
C=CCCCCCCCCCOP(=O)([O-])OCC[N+](C)(C)C [APC11UPC, 10-Undecylenyl-1-phosphocholine] | 0.01 µg/mL and 40 nM | 4025.00 |  | 135.34 | 1.8 µg/mL and 5.37 µM | 54 µg/mL and 161 µM |  |  |  |  |  | 
C[C@@H]1[C@H](O)[C@@H](C)/C=C/C=C/C=C/C=C/C=C/C=C/C=C/[C@H](O[C@@H]2O[C@H](C)[C@@H](O)[C@H](N)[C@@H]2O)C[C@@H]2O[C@](O)(C[C@@H](O)C[C@@H](O)[C@H](O)CC[C@@H](O)C[C@@H](O)CC(=O)O[C@H]1C)C[C@H](O)[C@H]2C(=O)O [AMB, amphotericin B] |  |  |  |  |  |  |  |  |  |  |  | 93.7
CCCCCCCCCCCCOP(=O)([O-])OCCCCCC[N+](C)(C)C [APC12P6C] | 1.01 µg/mL and 2.47 µM | 14.01 |  | 33.33 | 33.5 µg/mL and 82.2 µM | 14.1 µg/mL and 34.6 µM |  |  |  |  |  | 
